# Experimental data reported in US8629186B2, “Polymer micelles containing anthracyclines for the treatment of cancer” (Intezyne Technologies, Inc., priority 2009, dated 2014).
# Where two headings read alike, the source gives them in different places.
# Assays:
# [1] = Pharmacokinetics of crosslinked DOX loaded micelles in mice (Example 29); details: athymic nude mice, 15 mg/kg fast IV bolus tail vein, plasma doxorubicin
# Description: Athymic nude mice were injected with 15 mg/kg of either doxorubicin, crosslinked dox loaded micelles (IT-143, Example 24), or dox loaded micelles (Example 23) by a fast IV bolus into the tail vein with an injection volume of 0.2-0.4 mL. The delivery vehicle for drug administration was isotonic saline. Mouse blood was collected from mice into K2-EDTA tubes by heart puncture at time points of 5 minutes, 15 minutes, 1 hour, and 4 hours. Plasma was isolated by centrifugation at 1000 RPM for 5 minutes, and 150 uL of extraction solution (ice cold methanol/100 ng/mL daunorubicin internal standard) was added to 50 uL of each plasma sample. Samples are then vortexed for 10 minutes, centrifuged at 13,000 RPM for 10 minutes, and 150 uL of the supernatant is transferred to HPLC vials for analysis.
# (§1) Samples were analyzed on a Waters Alliance 2695 equiped with a 2475 fluorescence detector (Ex=470 nm; Em=580). A 5 μL sample injection was made onto a Waters 4 μm Nova Pak C18 (3.9×150 mm) at 30° C. with a flow rate of 0.750 mL per minute of 10 mM phosphate buffer (pH=1.4), methanol and acetonitrile (gradient from 70/10/20 to 40/10/50 for buffer/methanol/acetonitrile was made over eight minutes).
# [2] = rat, in vivo, iv, 10 mg/kg
# Description: The delivery vehicle for drug administration was isotonic saline. Rat blood was collected from the catheter into K2-EDTA tubes […] at time points of 1, minute, 5 minutes, 15 minutes, 1 hour, 4 hours, 8 hours and 24 hours. Plasma was isolated by centrifugation at 1000 RPM for 5 minutes, and 150 uL of extraction solution (ice cold methanol/100 ng/mL daunorubicin internal standard) was added to 50 uL of each plasma sample. Samples were then vortexed for 10 minutes, centrifuged at 13,000 RPM for 10 minutes, and 150 uL of the supernatant is transferred to HPLC vials for analysis.
# as §1
# MG-63 cells = experiment: Cytotoxicity of daunorubicin micelles compared to free daunorubicin, 72 hours, Cell-Titer Glo; format: cell-based; details: Homo sapiens, MG-63, 72 h
# Description: (§2) All cell lines were obtained from ATCC (Manassas, Va.). Media and supplements were obtained from Cell Gro (Manassas, Va.). HT-1080 cells were maintained in Eagle's Minimum Essential Medium supplemented with 10% FBS, 2 mM L-Glutamine, 1 mM sodium pyruvate, and 100 units/mL of penicillin and streptomycin. […] Cells were treated in triplicate. […] It should be noted that the IC50 values of the daunorubicin micelles are very similar to free daunorubicin.
# 786-0 cells = experiment: as above; format: cell-based; details: Homo sapiens, 786-0, 72 h
# Description: as §2
# SKOV-3 cells = experiment: as above; format: cell-based; details: Homo sapiens, SK-OV-3, 72 h
# Description: as §2
# HT-1080 cells = experiment: as above; format: cell-based; details: Homo sapiens, HT-1080, 72 h
# Description: as §2
# [3] = Rat pharmacokinetics of daunorubicin micelles compared to free daunorubicin (Example 54); format: in vivo, Fisher rats; details: plasma
# Description: The delivery vehicle for drug administration was isotonic saline.
# This study was repeated, and the micelles were injected in the same rats seven days after the first injection. The pharmacokinetic results are shown in the table below, and graphed in FIG. 22.
SMILES,AUC [1],Cmax [1],T½ [1],AUC [2],Cmax [2],IC50 (MG-63 cells),IC50 (786-0 cells),IC50 (SKOV-3 cells),IC50 (HT-1080 cells),"Cmax ([3]; Fisher rats, 10 mg/kg fast IV bolus, Day 0 (first injection))","AUC ([3]; Fisher, rat, intravenous, 10 mg/kg, repeat experiment, same rats seven days after the first injection)","Cmax ([3]; Fisher, rat, intravenous, 10 mg/kg, repeat experiment, same rats seven days after the first injection, read-out: Cmax)"
"COc1cccc2c1C(=O)c1c(O)c3c(c(O)c1C2=O)C[C@@](O)(C(=O)CO)C[C@@H]3O[C@H]1C[C@H](N)[C@H](O)[C@H](C)O1 [Free Dox, doxorubicin]",200 ng·h/mL,210 ng/mL,5.4 h,2610 ng·h/mL,9760 ng/mL,–,–,–,–,–,–,–
"COc1cccc2c1C(=O)c1c(O)c3c(c(O)c1C2=O)C[C@@](O)(C(C)=O)C[C@@H]3O[C@H]1C[C@H](N)[C@H](O)[C@H](C)O1 [Daunorubicin, daunorubicin]",–,–,–,–,–,0.231 ± 0.011 µM,0.231 ± 0.011 µM,0.2 ± 0.012 µM,0.546 ± 0.057 µM,3290 ng/mL,3540 ng·h/mL,10600 ng/mL
